Assay results taken from US11014902B2, “MYC G-quadruplex stabilizing small molecules and their use” (The United States of America, as represented by the …, priority 2015, dated 2021).

How the values were obtained:
Test in all cases: NCI-60 cell growth (SRB)
Type in all cases: cell-based
SF-295 = conditions: SF-295, CNS Cancer; 10 μM, 48 hours
Protocol: (§1) This example illustrates that Compounds 1 and 23 can be used in inhibit the growth of c-Myc expressing cancer cell lines in vitro. The NCI-60 panel of cancer cell lines (see Shoemaker, Nat. Rev. Cancer, 6, 813-823, 2006, and dtp.cancer.gov/discovery_development/nci-60/) was assayed for cell growth in the presence of 10 μM Compound 1 or Compound 23 for 48 hours. At 48 hours, the assay was terminated by fixation with TCA and determination of relative cell counts by addition of Sulforhodamine B (SRB, see Alley et al., Cancer Research, 48: 589-601, 1988.). Growth percent was determined by comparison of SRB reading of a duplicate plate of cells taken at the time of compound addition to the SRB reading at the termination of the treatment. The following table provides a summary of the percent of growth of each cell line in the panel compared to control (no treatment), as well as the mean delta and range of percent growth compared to control across the panel of cell lines for each treatment condition.

HOP-92 = conditions: HOP-92, Non-Small Cell Lung Cancer; 10 μM, 48 hours
Protocol: as §1

HCT-15 = conditions: HCT-15, Colon Cancer; 10 μM, 48 hours
Protocol: as §1

OVCAR-3 = conditions: OVCAR-3, Ovarian Cancer; 10 μM, 48 hours
Protocol: as §1

SN12C = conditions: Renal Cancer, 10 μM, 48 hours
Protocol: as §1

MALME-3M = conditions: Melanoma, 10 μM, 48 hours
Protocol: as §1

NCI/ADR-RES = conditions: Ovarian Cancer, 10 μM, 48 hours
Protocol: as §1

UO-31 = conditions: UO-31, Renal Cancer; 10 μM, 48 hours
Protocol: as §1

MDA-MB-231/ATCC = conditions: Breast Cancer, 10 μM, 48 hours
Protocol: as §1

MDA-MB-435 = conditions: MDA-MB-435, Melanoma; 10 μM, 48 hours
Protocol: as §1

KM12 = conditions: KM12, Colon Cancer; 10 μM, 48 hours
Protocol: as §1

M14 = conditions: M14, Melanoma; 10 μM, 48 hours
Protocol: as §1

MCF7 = conditions: MCF7, Breast Cancer; 10 μM, 48 hours
Protocol: as §1

HOP-62 = conditions: HOP-62, Non-Small Cell Lung Cancer; 10 μM, 48 hours
Protocol: as §1

UACC-257 = conditions: UACC-257, Melanoma; 10 μM, 48 hours
Protocol: as §1

SF-268 = conditions: SF-268, CNS Cancer; 10 μM, 48 hours
Protocol: as §1

SF-539 = conditions: SF-539, CNS Cancer; 10 μM, 48 hours
Protocol: as §1

SK-MEL-5 = conditions: SK-MEL-5, Melanoma; 10 μM, 48 hours
Protocol: as §1

NCI-H460 = conditions: NCI-H460, Non-Small Cell Lung Cancer; 10 μM, 48 hours
Protocol: as §1

K-562 = conditions: K-562, Leukemia; 10 μM, 48 hours
Protocol: as §1

NCI-H226 = conditions: NCI-H226, Non-Small Cell Lung Cancer; 10 μM, 48 hours
Protocol: as §1

OVCAR-5 = conditions: OVCAR-5, Ovarian Cancer; 10 μM, 48 hours
Protocol: as §1

A498 = conditions: A498, Renal Cancer; 10 μM, 48 hours
Protocol: as §1

ACHN = conditions: Renal Cancer, 10 μM, 48 hours
Protocol: as §1

UACC-62 = conditions: UACC-62, Melanoma; 10 μM, 48 hours
Protocol: as §1

SNB-19 = conditions: SNB-19, CNS Cancer; 10 μM, 48 hours
Protocol: as §1

SK-MEL-2 = conditions: SK-MEL-2, Melanoma; 10 μM, 48 hours
Protocol: as §1

BT-549 = conditions: BT-549, Breast Cancer; 10 μM, 48 hours
Protocol: as §1

NCI-H322M = conditions: Non-Small Cell Lung Cancer, 10 μM, 48 hours
Protocol: as §1

HT29 = conditions: HT29, Colon Cancer; 10 μM, 48 hours
Protocol: as §1

HL-60(TB) = conditions: Leukemia, 10 μM, 48 hours
Protocol: as §1

SR = conditions: Leukemia, 10 μM, 48 hours
Protocol: as §1

HS 578T = conditions: Breast Cancer, 10 μM, 48 hours
Protocol: as §1

DU-145 = conditions: DU-145, Prostate Cancer; 10 μM, 48 hours
Protocol: as §1

HCT-116 = conditions: HCT-116, Colon Cancer; 10 μM, 48 hours
Protocol: as §1

Compound | Growth Percent (SF-295) | Growth Percent (HOP-92) | Growth Percent (HCT-15) | Growth Percent (OVCAR-3) | Growth Percent (SN12C) | Growth Percent (MALME-3M) | Growth Percent (NCI/ADR-RES) | Growth Percent (UO-31) | Growth Percent (MDA-MB-231/ATCC) | Growth Percent (MDA-MB-435) | Growth Percent (KM12) | Growth Percent (M14) | Growth Percent (MCF7) | Growth Percent (HOP-62) | Growth Percent (UACC-257) | Growth Percent (SF-268) | Growth Percent (SF-539) | Growth Percent (SK-MEL-5) | Growth Percent (NCI-H460) | Growth Percent (K-562) | also measured
Cc1ccc(NC(=O)c2c(C)oc3ccc(O)c(CN4CCCCCC4)c23)cc1 [Compound 1] | 85.34% | 55.89% | 83.45% | 101.03% | 84.31% | 107.60% | 89.34% | 62.74% | 79.39% | 95.94% | 102.59% | 85.90% | 78.41% | 79.76% | 112.11% | 100.73% | 93.10% | 86.08% | 80.25% | 75.93% | Growth Percent (NCI-H226): 85.66%; Growth Percent (OVCAR-5): 95.63%; Growth Percent (A498): 64.12%; Growth Percent (ACHN): 93.94%; Growth Percent (UACC-62): 102.82%; Growth Percent (SNB-19): 84.35%; Growth Percent (SK-MEL-2): 99.26%; Growth Percent (BT-549): 92.88%; Growth Percent (NCI-H322M): 97.51%; Growth Percent (HT29): 100.25%; Growth Percent (HL-60(TB)): 92.74%; Growth Percent (SR): 83.12%; Growth Percent (HS 578T): 88.40%; Growth Percent (DU-145): 103.26%; Growth Percent (HCT-116): 64.67%
Cc1oc2ccc(O)c(CN3CCCCCC3)c2c1C(=O)Nc1ccc(C(F)(F)F)cc1 [Compound 23] | 48.84% | 34.88% | 45.06% | 62.02% | 66.72% | 49.92% | 53.65% | 40.69% | 48.96% | 58.22% | 65.50% | 58.14% | 48.09% | 70.39% | 82.00% | 75.44% | 61.23% | 69.97% | 51.53% | 29.63% | Growth Percent (NCI-H226): 72.45%; Growth Percent (OVCAR-5): 85.79%; Growth Percent (A498): 50.48%; Growth Percent (ACHN): 68.48%; Growth Percent (UACC-62): 67.27%; Growth Percent (SNB-19): 69.94%; Growth Percent (SK-MEL-2): 78.38%; Growth Percent (BT-549): 78.51%; Growth Percent (NCI-H322M): 69.34%; Growth Percent (HT29): 80.45%; Growth Percent (HL-60(TB)): 83.01%; Growth Percent (SR): −8.44%; Growth Percent (HS 578T): 65.50%; Growth Percent (DU-145): 64.80%; Growth Percent (HCT-116): 32.68%
